Data taken from ChEMBL document CHEMBL1221220, “Transport and signaling via the amino acid binding site of the yeast Gap1 amino acid transceptor” (Nat Chem Biol, 2009).
Residue numbers refer to the chain shown, from its start. The source made the active and inactive calls.

What was measured:
[1] = tested on: T1, General amino-acid permease GAP1 (Saccharomyces cerevisiae), P19145 [A396C]; experiment: Induction of yeast Gap1 A396C mutant-mediated amino acid uptake at 2 mM in presence of 10 mM MTSEA treated before compound addition
T1 sequence (whole entry): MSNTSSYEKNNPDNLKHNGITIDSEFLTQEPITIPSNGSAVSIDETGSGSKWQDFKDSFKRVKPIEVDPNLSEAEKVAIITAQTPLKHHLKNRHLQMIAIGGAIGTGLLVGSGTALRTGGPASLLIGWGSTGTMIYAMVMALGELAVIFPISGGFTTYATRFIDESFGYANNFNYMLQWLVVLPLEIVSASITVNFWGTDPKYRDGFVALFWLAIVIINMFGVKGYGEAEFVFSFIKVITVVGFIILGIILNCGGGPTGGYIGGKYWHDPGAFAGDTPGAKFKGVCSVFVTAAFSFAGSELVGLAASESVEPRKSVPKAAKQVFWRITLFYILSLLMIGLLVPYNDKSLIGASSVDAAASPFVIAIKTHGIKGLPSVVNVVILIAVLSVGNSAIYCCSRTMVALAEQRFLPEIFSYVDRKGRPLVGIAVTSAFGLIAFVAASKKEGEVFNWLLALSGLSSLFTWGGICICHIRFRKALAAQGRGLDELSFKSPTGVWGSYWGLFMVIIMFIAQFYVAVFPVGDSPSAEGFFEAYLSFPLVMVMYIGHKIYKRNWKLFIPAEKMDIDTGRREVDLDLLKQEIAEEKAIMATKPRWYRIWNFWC

[2] = tested on: T2, General amino-acid permease GAP1 (Saccharomyces cerevisiae), P19145 [L387C]; experiment: Induction of yeast Gap1 L387C mutant-mediated amino acid uptake at 2 mM in presence of 10 mM MTSEA treated before compound addition
T2 sequence (whole entry): T1 sequence (whole entry) with L387C, C396A

[3] = tested on: T3, General amino-acid permease GAP1 (Saccharomyces cerevisiae), P19145 [I382C]; experiment: Induction of yeast Gap1 I382C mutant-mediated trehalose activation at 2 mM in presence of 10 mM MTSEA treated before compound addition
T3 sequence (whole entry): T1 sequence (whole entry) with I382C, C396A

[4] = tested on: T4, General amino-acid permease GAP1 (Saccharomyces cerevisiae), P19145 [A403C]; experiment: Induction of yeast Gap1 A403C mutant-mediated […] activation at 2 mM in presence of 10 mM MTSEA treated before compound addition
T4 sequence (whole entry): T1 sequence (whole entry) with C396A, A403C

NC(=O)NCCC[C@H](N)C(=O)O
active: Activity [1] | Activity [2] | inhibition [3] | inhibition [4]
